Experimental data as given in patent US6545045B1, “Prostaglandin E agonists for treatment of glaucoma” (Alcon Manufacturing, Ltd., priority 1998, dated 2003).

Legend:
[1] = target: T1, EP4 receptors (Cricetulus griseus, UniProt A0A061ILF4); experiment: cAMP production (radioimmunoassay) via EP4 receptors in Chinese hamster ovary cells; format: cell-based; conditions: stimulated 15-60 min at 23° C; for EC50: read-out: Potency (EC50, nM) at EP4 Receptors in Chinese Hamster Ovary Cells
T1 construct: Chinese hamster ovary cells (containing EP4 receptors); endogenous in cells; host or cells: Chinese hamster ovary (CHO) cells
T1 sequence (A0A061ILF4 1-488): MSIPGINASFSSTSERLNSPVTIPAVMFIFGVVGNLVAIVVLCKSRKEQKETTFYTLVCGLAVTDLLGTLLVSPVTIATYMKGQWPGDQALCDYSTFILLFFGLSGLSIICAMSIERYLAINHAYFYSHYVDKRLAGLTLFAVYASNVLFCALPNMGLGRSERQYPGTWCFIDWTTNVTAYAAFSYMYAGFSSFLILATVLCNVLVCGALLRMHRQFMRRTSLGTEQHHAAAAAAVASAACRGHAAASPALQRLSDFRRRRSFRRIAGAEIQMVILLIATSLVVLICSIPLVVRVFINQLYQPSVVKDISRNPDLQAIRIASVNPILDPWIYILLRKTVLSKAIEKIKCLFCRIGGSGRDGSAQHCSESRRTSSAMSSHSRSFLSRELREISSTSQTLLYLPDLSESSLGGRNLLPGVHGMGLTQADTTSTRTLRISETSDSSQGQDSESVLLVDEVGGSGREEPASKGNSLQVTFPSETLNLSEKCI
Procedure: (§1) Immortalized human non-pigmented ciliary epithelial cells (containing EP2 receptors) and Chinese hamster ovary cells (containing EP4 receptors, Milne et al. Human moncytes and cultured Chinese hamster ovary cells express EP4 receptors positively coupled to adenylate cyclase, Br. J. Pharmacology, 113 (supplement):8 (1994)) were stimulated with various prostaglandins for 15-60 min at 23° C. The cAMP produced by receptor activation was determined by a specific radioimmunoassay as previously described (Sharif et al., Pharmacological analysis of mast cell mediator and neurotransmitter receptors coupled to adenylate cyclase and phospholipase C on immunocytochemically-defined human conjunctival epithelial cells, J. Ocular Pharmacology & Therapeutics, 13, 321-336 (1997); Crider et al. Prostaglandin-stimulated adenylyl cyclase activity via a pharmacologically-defined EP2 receptor in human non-pigmented epithelial cells, J. Ocular Pharmacology & Therapeutics 14:293-304 (1998); Crider et al. Use of a semi-automated, robotic radioimmunoassay to measure cAMP generated by activation of DP-, EP2- and IP-prostaglandin receptors in human ocular and other cell-types, Prostaglandins, Leukotrienes & Fatty Acids 59:77-82 (1998), Milne et al. Human moncytes and cultured Chinese hamster ovary cells express EP4 receptors positively coupled to adenylate cyclase, Br. J. Pharmacology, 113 (supplement):8, (1994)).

[2] = target: T2, EP2 receptors (Homo sapiens, UniProt P43116); experiment: cAMP production (radioimmunoassay) via EP2 receptors in immortalized human non-pigmented ciliary epithelial cells; format: cell-based
T2 construct: Immortalized human non-pigmented ciliary epithelial cells (containing EP2 receptors); endogenous in cells; host or cells: immortalized human non-pigmented ciliary epithelial cells
T2 sequence (P43116 whole entry): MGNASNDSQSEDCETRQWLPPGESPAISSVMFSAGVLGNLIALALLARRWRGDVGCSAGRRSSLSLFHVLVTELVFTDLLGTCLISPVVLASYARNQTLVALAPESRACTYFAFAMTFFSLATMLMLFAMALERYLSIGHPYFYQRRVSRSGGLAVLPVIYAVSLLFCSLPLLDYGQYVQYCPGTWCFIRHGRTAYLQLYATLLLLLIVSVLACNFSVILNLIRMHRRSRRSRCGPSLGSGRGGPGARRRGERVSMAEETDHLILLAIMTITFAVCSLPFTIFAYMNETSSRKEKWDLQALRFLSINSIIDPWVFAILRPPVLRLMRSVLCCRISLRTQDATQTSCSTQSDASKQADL
Procedure: as §1

[3] = cAMP production, stimulated 15-60 min at 23° C

O=C(O)CCC/C=C\C[C@@H]1[C@@H](/C=C/[C@@H](O)COc2cccc(C(F)(F)F)c2)[C@H](O)C[C@@H]1O (racemic) [Fluprostenol]
Potency (EC50, nM) at EP4 Receptors in Chinese Hamster Ovary Cells [1]: Inactive
Potency (EC50, nM) at EP4 Receptors in Chinese Hamster Ovary Cells ([1]; listed as fluprostenol): inactive
Potency (EC50, nM) at EP2 Receptors in Immortalized Human Non-pigmented Ciliary Epithelial Cells [2, 3]: Inactive
Potency (EC50, nM) at EP2 Receptors in Immortalized Human Non-pigmented Ciliary Epithelial Cells ([2]; cAMP production, stimulated 15-60 min at 23° C, listed as fluprostenol): inactive

CCCCC(C)(C)[C@H](O)/C=C/[C@H]1CCC(=O)[C@@H]1C/C=C\CCCC(=O)O [11-deoxy-16,16-dimethyl-PGE2, 11-deoxy-16,16-dimethyl PGE2]
efficacy at EP4 Receptors in Chinese Hamster Ovary Cells [1]: 99%

CCCCC[C@H](O)/C=C/[C@H]1CCC(=O)[C@@H]1CCCCCCC(=O)O [11-deoxy-PGE1]
efficacy at EP4 Receptors in Chinese Hamster Ovary Cells [1]: 86%
EC50 [1]: 38 nM
EC50 ([2]; cAMP production, stimulated 15-60 min at 23° C, read-out: Potency (EC50, nM) at EP2 Receptors in Immortalized Human Non-pigmented Ciliary Epithelial Cells): 500 nM

CCCCC(C)(C)[C@H](O)/C=C/[C@H]1[C@H](O)CC(=O)[C@@H]1C/C=C\CCCC(=O)O [16,16-dimethyl-PGE2, 16,16-dimethyl PGE2]
efficacy at EP4 Receptors in Chinese Hamster Ovary Cells [1]: 100%

CCCC1([C@H](O)C/C=C/[C@H]2[C@H](O)CC(=O)[C@@H]2CCCCCCC(=O)OC)CCC1 [Butaprost]
selectivity between EP2 and EP4 receptors (relative agonist potency) ([2]; EP2 versus EP4, from EC50 values of Table 1): more EP2-selective

O=C(O)CCC/C=C\CC1C(O)CC(O)C1/C=C/C(O)COc1cccc(Cl)c1 (stereo not shown) [Cloprostenol]
Potency (EC50, nM) at EP4 Receptors in Chinese Hamster Ovary Cells [1]: Inactive
Potency (EC50, nM) at EP4 Receptors in Chinese Hamster Ovary Cells ([1]; listed as cloprostenol): inactive
Potency (EC50, nM) at EP2 Receptors in Immortalized Human Non-pigmented Ciliary Epithelial Cells [2, 3]: Inactive
Potency (EC50, nM) at EP2 Receptors in Immortalized Human Non-pigmented Ciliary Epithelial Cells ([2]; cAMP production, stimulated 15-60 min at 23° C, listed as cloprostenol): inactive

CCCCC[C@H](O)/C=C/[C@H]1[C@H](O)CC(=O)[C@@H]1C/C=C\CCCC(=O)O [PGE2]
efficacy at EP4 Receptors in Chinese Hamster Ovary Cells [1]: 100%
EC50 [1]: 35 nM
